Reference: BindingDB's records for PubMed 33228976 (Massachusetts College of Pharmacy and Health Sciences …, 2021)

Molecular target: GTPase KRas (Homo sapiens, UniProt P01116)
Experiment: Antiproliferative activity against human COLO 320DM cells harboring wild type KRAS assessed as reduction in cell viability incubated for 24 hrs in presence of MVA

GTPase KRas, sequence (P01116 whole entry): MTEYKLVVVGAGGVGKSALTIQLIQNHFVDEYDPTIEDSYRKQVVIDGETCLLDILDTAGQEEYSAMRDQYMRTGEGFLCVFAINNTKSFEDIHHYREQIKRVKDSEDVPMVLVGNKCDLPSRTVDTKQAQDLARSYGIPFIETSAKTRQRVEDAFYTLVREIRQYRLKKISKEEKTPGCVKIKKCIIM

## CCCC[C@@H](C)C=C(C)C=C(C)C(=O)NC1=C[C@@](O)(C=CC=CC=CC(=O)NC2C(=O)CCC2=O)[C@@H]2O[C@@H]2C1=O [(R)-2,4,6-Trimethyl-deca-2,4-dienoic acid {(1S,5S,6R)-5-hydroxy-5-[(1E,3E,5E)-6-(2-hydroxy-5-oxo-cyclopent-1-enylcarbamoyl)-hexa-1,3,5-trienyl]-2-oxo-7-oxa-bicyclo[4.1.0]hept-3-en-3-yl}-amide]
  IC50: 3.58 µM
